Values belong to the molecule of their own block, whether it stands above or below them.
How the values were obtained:
[1] = biological target: T1, SSTR4 (Homo sapiens, UniProt P31391); assay: Inhibition of forskolin stimulated cAMP in CHO-K1 cells overexpressing SSTR4; format: cell-based; conditions: read-out: SSTR4 Activity pEC50 (converted)
T1 construct: host or cells: CHO-K1
Outline: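 CHO-K1 cells overexpressing SSTR4 treated 30 min at room temperature with compound in Krebs Ringer buffer containing 0.5% BSA, 300 μM IBMX and 350 nM forskolin. Intracellular cAMP measured by HTRF LANCE Ultra (665/615 nm); pEC50 values reported.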

[2] = biological target: T1, SSTR4; assay: SSTR4 I-125 somatostatin competition binding assay (CHO-K1 membranes); conditions: competition with I-125 somatostatin, membranes from CHO-K1 overexpressing SSTR4; read-out: SSTR4 Binding pIC50 (converted)
Method: SSTR4 I-125 Somatostatin Competition Binding Assay
Membranes from CHO-K1 cells overexpressing SSTR4 are purchased from Perkin Elmer (catalog number ES-524-M400UA). Test compounds are suspended in DMSO and then diluted in assay buffer (25 mM HEPES pH 7.4, 10 mM MgCl2, 1 mM CaCl2), 0.5% BSA) plus 0.2 nM I-125 labeled somatostatin (Perkin Elmer catalog number NEX389). Fifty μL of compound/I-125 somatostatin in assay buffer are added per well to 96-well poly-propylene plate. Then 1 μg of SSTR4 membranes in 50 μL assay buffer are added per well. The Plate is incubated for 60 minutes at room temperature. FilterMat A filters (Perkin Elmer catalog number 1450-421) are pre-soaked in 0.5% PEI (Sigma catalog number P3143). The contents of the assay plate are transferred to filters with a TomTech harvester and washed 5 times with 20 mM HEPES, 100 mM NaCl. The filters are dried in a microwave oven then transferred to sample bag containing a scintillator sheet (Perkin Elmer catalog number 1450-441). The scintillator sheets are melted to filters using a heat block. The filters are then read in a MicroBeta scintillation counter. Binding Ki curves are generated using Activity Base for Screening Data Management and the results are reported as pIC50.

[3] = biological target: T2, SSTR1 (Homo sapiens, UniProt P30872); assay: SSTR1 I-125 somatostatin competition binding assay for selectivity versus SSTR1 (CHO-K1 membranes); conditions: competition with I-125 somatostatin, membranes from CHO-K1 overexpressing SSTR1; read-out: SSTR1 Binding pIC50 (converted)
T2 construct: purchased Perkin Elmer ES-520-M400UA; host or cells: CHO-K1 membranes
T2 sequence (P30872 whole entry): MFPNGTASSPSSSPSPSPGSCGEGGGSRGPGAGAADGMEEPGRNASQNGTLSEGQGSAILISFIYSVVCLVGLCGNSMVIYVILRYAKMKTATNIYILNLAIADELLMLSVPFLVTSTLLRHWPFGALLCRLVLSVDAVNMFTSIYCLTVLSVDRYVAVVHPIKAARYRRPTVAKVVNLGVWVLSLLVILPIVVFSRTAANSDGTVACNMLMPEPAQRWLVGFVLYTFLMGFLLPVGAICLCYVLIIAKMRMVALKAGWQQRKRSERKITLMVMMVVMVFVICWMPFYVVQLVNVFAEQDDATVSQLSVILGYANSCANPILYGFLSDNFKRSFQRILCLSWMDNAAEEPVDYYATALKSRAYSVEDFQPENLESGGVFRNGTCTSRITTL
Method: SSTR1 I-125 Somatostatin Competition Binding Assay for Selectivity Versus SSTR1
Membranes from CHO-K1 cells overexpressing SSTR1 are purchased from Perkin Elmer (catalog number ES-520-M400UA). Test compounds are suspended in DMSO and then diluted in assay buffer (25 mM HEPES pH 7.4, 10 mM MgCl2, 1 mM CaCl2), 0.5% BSA) plus 0.4 nM I-125 labeled somatostatin (Perkin Elmer catalog number NEX389). Fifty μL of compound/I-125 somatostatin in assay buffer are added per well to 96-well poly-propylene plate. Then 10 μg of SSTR1 membranes in 50 μL assay buffer are added per well. The plate is incubated for 60 minutes at room temperature. FilterMat A filters (Perkin Elmer catalog number 1450-421) are pre-soaked in 0.5% PEI (Sigma catalog number P3143). The contents of the assay plate are transferred to filters with a TomTech harvester and washed 5 times with 20 mM HEPES, 100 mM NaCl. The filters are dried in a microwave oven then transferred to sample bag containing a scintillator sheet (Perkin Elmer catalog number 1450-441). The scintillator sheets are melted to the filters using a heat block. The filters are then read in a MicroBeta scintillation counter. Binding Ki curves are generated using Activity Base for Screening Data Management and the results are reported as pIC50.

T1 sequence (P31391 whole entry): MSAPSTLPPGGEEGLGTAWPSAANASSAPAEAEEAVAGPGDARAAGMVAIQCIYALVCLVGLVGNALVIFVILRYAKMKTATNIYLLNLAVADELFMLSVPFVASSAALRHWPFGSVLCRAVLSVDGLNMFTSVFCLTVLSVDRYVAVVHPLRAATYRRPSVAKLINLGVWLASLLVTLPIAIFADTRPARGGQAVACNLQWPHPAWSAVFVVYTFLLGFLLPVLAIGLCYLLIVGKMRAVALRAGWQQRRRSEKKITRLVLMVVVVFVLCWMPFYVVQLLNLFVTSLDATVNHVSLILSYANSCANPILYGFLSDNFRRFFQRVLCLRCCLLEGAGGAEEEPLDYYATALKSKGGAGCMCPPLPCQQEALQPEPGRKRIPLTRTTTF

SMILES: Cc1cccc2c(C(C)(C)NC(=O)C[C@H]3CCCCN3C)noc12 (single isomer, unassigned) [Example 43]
- EC50 [1]: 2 nM
- IC50 [2]: 20 nM
- IC50 [3]: 3980 nM

SMILES: COc1ccccc1C(C)(C)NC(=O)[C@H](C)CN1CCCC1 (single isomer, unassigned) [Example 75]
- EC50 [1]: 2.51 nM
- IC50 [2]: 31.6 nM
- IC50 [3]: 10000 nM

SMILES: CN1CCC[C@@H]1CC(=O)NC(C)(C)[C@@H]1CCc2ccccc2O1 (single isomer, unassigned) [Example 131]
- EC50 [1]: 50.1 nM
- IC50 [2]: 251 nM
- IC50 [3]: 12600 nM

SMILES: C[C@@H](CN1CCC1)C(=O)NC(C)(C)c1ccccc1Cl (single isomer, unassigned) [Example 134]
- EC50 [1]: 1.26 nM
- IC50 [2]: 50.1 nM
- IC50 [3]: 6310 nM

SMILES: COc1ccc(C(C)(C)NC(=O)[C@H](C)CN2CCC2)cc1 (single isomer, unassigned) [Example 138]
- EC50 [1]: 12.6 nM
- IC50 [2]: 126 nM
- IC50 [3]: 15800 nM

SMILES: COc1c(C)cccc1C(C)(C)NC(=O)[C@H](C)CN1CCC1 (single isomer, unassigned) [Example 146]
- EC50 [1]: 2.51 nM
- IC50 [2]: 20 nM
- IC50 [3]: 2510 nM

SMILES: Cc1ccc(C(C)(C)NC(=O)[C@@H](C)CN2CCC2)cc1 (single isomer, unassigned) [Example 149]
- EC50 [1]: 3.16 nM
- IC50 [2]: 50.1 nM
- IC50 [3]: 6310 nM

SMILES: C[C@@H](CN1CCC1)C(=O)NC1(c2ccccc2F)CC1 (single isomer, unassigned) [Example 151]
- EC50 [1]: 7.94 nM
- IC50 [2]: 100 nM
- IC50 [3]: 7940 nM

SMILES: C[C@@H](CN1CCC1)C(=O)NC(C)(C)c1cccc(F)c1 (single isomer, unassigned) [Example 153]
- EC50 [1]: 3.98 nM
- IC50 [2]: 79.4 nM
- IC50 [3]: 6310 nM

SMILES: C[C@@H](CN1CCC1)C(=O)NC(C)(C)c1ccc(Cl)cc1 (single isomer, unassigned) [Example 155]
- EC50 [1]: 2.51 nM
- IC50 [2]: 39.8 nM
- IC50 [3]: 3160 nM

SMILES: O=C(CCN1CCC1)N[C@H](c1cc(F)ccc1F)C(F)F (single isomer, unassigned) [Example 169]
- EC50 [1]: 2.51 nM
- IC50 [2]: 316 nM
- IC50 [3]: 39800 nM

SMILES: COc1c(F)cccc1C(C)(C)NC(=O)[C@H](C)CN1CCC1 (single isomer, unassigned) [Example 171]
- EC50 [1]: 2 nM
- IC50 [2]: 15.8 nM
- IC50 [3]: 3980 nM

SMILES: Cc1ccc([C@H](CF)NC(=O)CCN2CCC2)cc1 (single isomer, unassigned) [Example 175]
- EC50 [1]: 20 nM
- IC50 [2]: 158 nM
- IC50 [3]: 31600 nM

SMILES: C[C@H](CN1CCC1)C(=O)N[C@H](c1ccccc1)C(F)F (single isomer, unassigned) [Example 181]
- EC50 [1]: 0.158 nM
- IC50 [2]: 6.31 nM
- IC50 [3]: 1580 nM

SMILES: CC[C@H](CN1CCC1)C(=O)NC(C)(C)c1ccc(F)cc1 (single isomer, unassigned) [Example 182]
- EC50 [1]: 1.58 nM
- IC50 [2]: 12.6 nM
- IC50 [3]: 1000 nM

SMILES: CC[C@@H](CN1CCC1)C(=O)NC(C)(C)c1ccc(F)cc1 (single isomer, unassigned) [Example 183]
- EC50 [1]: 50.1 nM
- IC50 [2]: 501 nM
- IC50 [3]: 20000 nM

SMILES: CC[C@H](CN1CCC1)C(=O)NC(C)(C)c1cccc(F)c1 (single isomer, unassigned) [Example 184]
- EC50 [1]: 0.631 nM
- IC50 [2]: 15.8 nM
- IC50 [3]: 2000 nM

SMILES: O=C(CCN1CCC1)NC(c1ccc(F)cc1)C(F)(F)F (single isomer, unassigned) [Example 190]
- EC50 [1]: 2 nM
- IC50 [2]: 20 nM
- IC50 [3]: 3160 nM

SMILES: O=C(CCN1CCC1)NC(c1cccc(Cl)c1)C(F)(F)F (single isomer, unassigned) [Example 191]
- EC50 [1]: 2 nM
- IC50 [2]: 10 nM
- IC50 [3]: 2510 nM

SMILES: O=C(CCN1CCC1)NC(c1cccc(Cl)c1)C(F)(F)F (single isomer, unassigned) [Example 192]
- EC50 [1]: 15.8 nM
- IC50 [2]: 126 nM
- IC50 [3]: 31600 nM

SMILES: O=C(CCN1CCC1)NC(c1cccc(F)c1)C(F)(F)F (single isomer, unassigned) [Example 193]
- EC50 [1]: 15.8 nM
- IC50 [2]: 200 nM
- IC50 [3]: 31600 nM

SMILES: O=C(CCN1CCC1)N[C@H](c1ccccc1)C(F)F (single isomer, unassigned) [Example 201]
- EC50 [1]: 31.6 nM
- IC50 [2]: 63.1 nM
- IC50 [3]: 25100 nM

SMILES: C[C@H](CN1CCC1)C(=O)N[C@@H](CF)c1ccccc1 (single isomer, unassigned) [Example 205]
- EC50 [1]: 1.26 nM
- IC50 [2]: 25.1 nM
- IC50 [3]: 2510 nM

SMILES: Cc1ccc(C(NC(=O)CCN2CCC2)C(F)(F)F)cc1 (single isomer, unassigned) [Example 207]
- EC50 [1]: 1.58 nM
- IC50 [2]: 39.8 nM
- IC50 [3]: 5010 nM

SMILES: O=C(CCN1CCC1)NC(c1cccc(F)c1)C(F)(F)F (single isomer, unassigned) [Example 208]
- EC50 [1]: 3.16 nM
- IC50 [2]: 39.8 nM
- IC50 [3]: 15800 nM

SMILES: O=C(CCN1CCC1)NC(c1ccccc1F)C(F)(F)F (single isomer, unassigned) [Example 209]
- EC50 [1]: 1.26 nM
- IC50 [2]: 126 nM
- IC50 [3]: 20000 nM

SMILES: Cc1cccc2c(C(C)(C)NC(=O)CC3CCCN3C)nn(C)c12 (stereo not drawn) [Example 1, N-(2-(1,7-dimethyl-1H-indazol-3-yl)propan-2-yl)-2-(1-methylpyrrolidin-2-yl)acetamide]
- EC50 [1]: 6.31 nM
- IC50 [2]: 63.1 nM
- IC50 [3]: 10000 nM

Other lines, results leading:

- EC50 [1]: 6.31 nM
- IC50 [2]: 63.1 nM
- IC50 [3]: 12600 nM
SMILES: Cc1cccc2c(C(C)(C)NC(=O)C[C@@H]3CCCCN3C)noc12 (single isomer, unassigned) [Example 44]

- EC50 [1]: 7.94 nM
- IC50 [2]: 126 nM
- IC50 [3]: 7940 nM
SMILES: Cc1cccnc1OCC1(NC(=O)[C@H](C)[C@@H]2CCCN2C)CC1 (single isomer, unassigned) [Example 127]

- EC50 [1]: 39.8 nM
- IC50 [2]: 316 nM
- IC50 [3]: 10000 nM
SMILES: CN1CCC[C@H]1CC(=O)NC(C)(C)[C@@H]1CCc2ccccc2O1 (single isomer, unassigned) [Example 128]

- EC50 [1]: 6.31 nM
- IC50 [2]: 126 nM
- IC50 [3]: 10000 nM
SMILES: C[C@H](CN1CCCC1)C(=O)NC(C)(C)c1ccccc1Cl (single isomer, unassigned) [Example 136]

- EC50 [1]: 6.31 nM
- IC50 [2]: 50.1 nM
- IC50 [3]: 12600 nM
SMILES: Cc1ccccc1C(C)(C)NC(=O)[C@H](C)CN1CCC1 (single isomer, unassigned) [Example 140]

- EC50 [1]: 1.58 nM
- IC50 [2]: 15.8 nM
- IC50 [3]: 2000 nM
SMILES: Cc1c(F)cccc1C(C)(C)NC(=O)[C@H](C)CN1CCC1 (single isomer, unassigned) [Example 142]

- EC50 [1]: 0.794 nM
- IC50 [2]: 20 nM
- IC50 [3]: 1260 nM
SMILES: Cc1cccc(C(C)(C)NC(=O)[C@@H](C)CN2CCC2)c1Cl (single isomer, unassigned) [Example 145]

- EC50 [1]: 7.94 nM
- IC50 [2]: 100 nM
- IC50 [3]: 20000 nM
SMILES: C[C@H](CN1CCC1)C(=O)NC(C)(C)c1ccccc1F (single isomer, unassigned) [Example 156]

- EC50 [1]: 0.794 nM
- IC50 [2]: 20 nM
- IC50 [3]: 1580 nM
SMILES: CC[C@@H](CN1CCC1)C(=O)NC(C)(C)c1ccc(C)cc1 (single isomer, unassigned) [Example 187]

- EC50 [1]: 6.31 nM
- IC50 [2]: 20 nM
- IC50 [3]: 7940 nM
SMILES: O=C(CCN1CCCC1)N[C@H](c1cccc(Cl)c1)C(F)F (single isomer, unassigned) [Example 198]

- EC50 [1]: 2 nM
- IC50 [2]: 25.1 nM
- IC50 [3]: 5010 nM
SMILES: CC[C@@H](CN1CCC1)C(=O)NC(C)(C)c1ccccc1F (single isomer, unassigned) [Example 200]

- EC50 [1]: 10 nM
- IC50 [2]: 31.6 nM
- IC50 [3]: 3980 nM
SMILES: Cc1ccccc1C(NC(=O)CCN1CCC1)C(F)(F)F (single isomer, unassigned) [Example 210]

— patent US20230150981A1, “N-HETEROARYLALKYL-2-(HETEROCYCLYL AND HETEROCYCLYLMETHYL) ACETAMIDE DERIVATIVES AS SSTR4 AGONISTS” (Takeda Pharmaceutical Compnay Limited, priority 2020, published 2023)
